We go through 15 compounds from patent EP0636626A1, “Pyrazolopyrimidine Derivatives” (LABORATOIRES GLAXO SA, priority 1993, dated 1995).

This experiment addresses T1, cGMP specific PDE (Phosphodiesterase type V) (Bos taurus, UniProt Q28156).
T1 construct: The PDE V in enzyme is isolated from bovine aorta; from tissue; host or cells: bovine aorta
Put plainly: cGMP specific PDE (PDE V) inhibition, "one step" assay. The class given is biochemical. As to conditions: PDE V isolated from bovine aorta; concentration of inhibitor required for 50% inhibition of enzyme activity; read-out: IC₅₀. As for the experimental part:
The affinities of compounds of formula (I) for cGMP specific PDE (Phosphodiesterase type V) may be assessed by determination of their IC₅₀ values (the concentration of inhibitor required for 50% inhibition of enzyme activity). The PDE V in enzyme is isolated from bovine aorta, essentially by the method of Lugnier et al. in Biochem. Pharmacology 35, 1743 (1986) and assays are performed using a "one step" assay adapted from the method of Wells et al in Biochim. Biophys. Acta 384, 430 (1975).
Compounds of the invention were assayed according to the procedure described hereinabove.

The structures appear in SMILES notation.

Turning to `CCCOc1ccc(N)cc1-c1nc2c(c(C)nn2C)c(=O)[nH]1` [Example 7, 1,3-Dimethyl-6-(2-propoxy-5-aminophenyl)-1,5-dihydropyrazolo[3,4-d]pyrimidin-4-one], the IC50 is 1 to 10 nM.
In the case of `CCCOc1ccc(NS(C)(=O)=O)cc1-c1nc2c(c(C)nn2C)c(=O)[nH]1` [Example 11, 1,3-Dimethyl-6-(2-propoxy-5-methanesulfonamidophenyl)-1,5-dihydropyrazolo[3,4-d]pyrimidin-4-one], the IC50 was 1 to 10 nM.
Consider `CCCOc1ccc(NC(C)=O)cc1-c1nc2c(c(C)nn2C)c(=O)[nH]1` [Example 15, 1,3-Dimethyl-6-(2-propoxy-5-acetamidophenyl)-1,5-dihydropyrazolo[3,4-d]pyrimidin-4-one], for which the IC50 was 1 to 10 nM.
For the compound `CCCOc1ccc(NC(=O)c2ccc(F)cc2)cc1-c1nc2c(c(C)nn2C)c(=O)[nH]1` [Example 18, 1,3-Dimethyl-6-[2-propoxy-5-(4-fluorobenzamido)phenyl]-1,5-dihydropyrazolo[3,4-d]pyrimidin-4-one], the IC50 lay in the range of 1 to 10 nM.
For the compound `CCCOc1ccc(NC(=O)c2cccs2)cc1-c1nc2c(c(C)nn2C)c(=O)[nH]1` [Example 19, 1,3-Dimethyl-6-[2-propoxy-5-((2-thienyl)carboxamido)phenyl]-1,5-dihydropyrazolo[3,4-d]pyrimidin-4-one], the IC50 was in the range of 1 to 10 nM.
As to `CCCOc1ccc(NC(=O)OCC)cc1-c1nc2c(c(C)nn2C)c(=O)[nH]1` [Example 22, 1,3-Dimethyl-6-(2-propoxy-5-ethoxycarbonylaminophenyl)-1,5-dihydropyrazolo[3,4-d]pyrimidin-4-one], the IC50 fell in the range of 1 to 10 nM.
In the case of `CCCOc1ccc(NC(=O)NCC)cc1-c1nc2c(c(C)nn2C)c(=O)[nH]1` [Example 30, 1,3-Dimethyl-6-(2-propoxy-5-ethylureidophenyl)-1,5-dihydro-pyrazolo[3,4-d]pyrimidin-4-one], the IC50 lay in the range of 1 to 10 nM.
For the compound `CCCOc1ccc(NC(=S)NCC)cc1-c1nc2c(c(C)nn2C)c(=O)[nH]1` [Example 31, 1,3-Dimethyl-6-(2-propoxy-5-ethylthioureidophenyl)-1,5-dihydro-pyrazolo[3,4-d]pyrimidin-4-one], the IC50 was 1 to 10 nM.
Consider `CCCOc1ccc(-c2nc(C)cs2)cc1-c1nc2c(c(C)nn2CC)c(=O)[nH]1` [Example 37, 1-Ethyl-3-methyl-6-[2-propoxy-5-(4-methyl-2-thiazolyl)phenyl]-1,5-dihydro-pyrazolo[3,4-d] pyrimidin-4-one], for which the IC50 was in the range of 1 to 10 nM.
For `CCCOc1ccc(NC(=O)C(F)(F)F)cc1-c1nc2c(c(C)nn2C)c(=O)[nH]1` [Example 41, 1,3-Dimethyl-6-(2-propoxy-5-trifluoroacetamidophenyl)-1,5-dihydro-pyrazolo[3,4-d]pyrimidin-4-one], the IC50 fell in the range of 1 to 10 nM.
As for `CCCOc1ccc(-c2csc(C)n2)cc1-c1nc2c(c(C)nn2C)c(=O)[nH]1` [Example 51, 1,3-Dimethyl-6-[2-propoxy-5-(2-methyl-4-thiazolyl)phenyl]-1,5-dihydro-pyrazolo[3,4-d]pyrimidin-4-one], the IC50 fell in the range of 1 to 10 nM.
The result for `CCCOc1ccc(-c2csc(C)n2)cc1-c1nc2c(c(C)nn2CC)c(=O)[nH]1` [Example 63, 1-Ethyl-3-methyl-6-[2-propoxy-5-(2-methyl-4-thiazolyl)phenyl]-1,5-dihydropyrazolo[3,4-d]pyrimidin-4-one] reads 1 to 10 nM.
As for `CCCOc1ccc(-c2csc(-c3cccnc3)n2)cc1-c1nc2c(c(C)nn2CC)c(=O)[nH]1` [Example 65, 1-Ethyl-3-methyl-6-[2-propoxy-5-(2-(3-pyridyl)-4-thiazolyl)phenyl]-1,5-dihydropyrazolo[3,4-d]pyrimidin-4-one], the IC50 is 1 to 10 nM.
Next, `CCCOc1ccc(-c2n[nH]c(-c3ccccc3)n2)cc1-c1nc2c(c(C)nn2C)c(=O)[nH]1` [Example 67, 1,3-Dimethyl-6-[2-propoxy-5-(3-phenyl-1,2,4-triazol-5-yl)phenyl]-1,5-dihydropyrazolo[3,4-d] pyrimidin-4-one]: 1 to 10 nM.
Next, `CCCOc1ccc(-c2ccc(C)s2)cc1-c1nc2c(c(C)nn2C)c(=O)[nH]1` [Example 69, 1,3-Dimethyl-6-[2-propoxy-5-(5-methyl-2-thienyl)phenyl]-1,5-dihydropyrazolo[3,4-d]pyrimidin-4-one]: 1 to 10 nM.
